Measurements taken from patent publication US12180474B2, “Methods of treating porphyria” (University of Pittsburgh—Of the Commonwealth System of …, priority 2018, dated 2024).

Experiments:
Assay type in all cases: in vivo
[1] = biological target: T1, Porcupine (PORCN) (Mus musculus, UniProt Q9JJJ7); experiment: Wnt-C59 in WT1/WT2 mice, acute intermittent porphyria model (Example 3); conditions: 30 mg/kg i.p., vs control group
T1 construct: from tissue; host or cells: whole mouse in vivo; liver and serum analysed
T1 sequence (Q9JJJ7 1-461): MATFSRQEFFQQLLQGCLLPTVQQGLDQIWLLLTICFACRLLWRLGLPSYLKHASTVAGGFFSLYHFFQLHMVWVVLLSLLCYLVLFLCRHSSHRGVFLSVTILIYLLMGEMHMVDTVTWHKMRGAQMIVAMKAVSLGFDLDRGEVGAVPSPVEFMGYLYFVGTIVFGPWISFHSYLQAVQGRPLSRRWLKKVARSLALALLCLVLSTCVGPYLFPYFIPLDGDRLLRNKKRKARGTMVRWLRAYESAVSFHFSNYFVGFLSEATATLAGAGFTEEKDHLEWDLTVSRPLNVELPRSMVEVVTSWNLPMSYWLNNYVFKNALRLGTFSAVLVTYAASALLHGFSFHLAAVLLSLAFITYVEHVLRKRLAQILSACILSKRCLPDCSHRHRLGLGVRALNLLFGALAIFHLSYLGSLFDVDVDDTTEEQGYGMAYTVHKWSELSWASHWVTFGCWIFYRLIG

[2] = biological target: T1, Porcupine (PORCN); experiment: Wnt-C59 in DDC-fed CD-1 mice (Example 2); conditions: 30 mg/kg i.p.
Procedure: Two-month old CD-1 mice were started on a 0.1% DDC diet to induce porphyria. Three days after starting the diet, mice received intraperitoneal (i.p.) injections of 30 mg/kg Porcupine (PORCN) inhibitor Wnt-C59. The Wnt-C59 was delivered on a five days on, two days off schedule for two weeks. Mice were sacrificed 6 hours after the final dose of Wnt-C59. Serum and livers from the control and experimental groups were utilized for IHC, Western blotting, and biochemical assays, as described in Example 1.

[3] = biological target: T1, Porcupine (PORCN); experiment: Wnt-C59, GS and p-mTOR IHC in DDC-fed WT1/WT2 mice (Example 4)
Excerpt: To test the effect of Wnt-C59 on GS and p-mTOR levels, two-month old WT1/WT2 mice were exposed to a DCC diet, as described in Example 1, and received i.p. injections of Wnt-C59, as described in Example 2. Livers from the control and experimental groups were utilized for IHC, as described in Example 1.

[4] = five days on, two days off for two weeks, 0.1% DDC diet

ALA-D mRNA levels [1]: significantly reduced | ALA-S mRNA levels [1]: significantly reduced | glutamine synthetase (GS), β-catenin activity ([2]; DDC diet): decrease | porphyrin accumulation (H&E) ([2]; DDC diet): decreased | serum ALP [2, 4]: significantly reduced | serum total bilirubin [2, 4]: significantly reduced | p-mTOR protein expression (IHC) ([3]; DCC diet and Wnt-C59 injection): no expression | GS protein expression (IHC) ([3]; DDC diet and Wnt-C59 injection): no expression
Structure (SMILES): Cc1cc(-c2ccc(CC(=O)Nc3ccc(-c4cccnc4)cc3)cc2)ccn1 [Wnt-C59]
serum ALT [2, 4]: significantly reduced | serum AST [2, 4]: significantly reduced
